Assays:
[1] = biological target: T1, Voltage-gated L-type calcium channel (Homo sapiens, UniProt Q13936+Q13698+Q01668+O60840); assay: Binding affinity to verapamil sensitive calcium channel L type at 10 uM; type: protein assay
[2] = biological target: T2, 3',5'-cyclic-AMP phosphodiesterase 4B (Homo sapiens, UniProt Q07343); assay: Inhibition of release of TNF alpha in human whole blood; type: functional, tissue-based
[3] = biological target: Glucocorticoid receptor (Homo sapiens) (UniProt P04150); assay: Binding affinity to glucocorticoid receptor at 10 uM
[4] = biological target: Adenosine receptor A1 (Homo sapiens) (UniProt P30542); assay: Binding affinity to adenosine A1 receptor at 10 uM
[5] = biological target: T2, 3',5'-cyclic-AMP phosphodiesterase 4B; assay: Inhibition of PDE4B
[6] = biological target: Glutamate receptor ionotropic AMPA (Homo sapiens) (UniProt P48058+P42263+P42262+P42261); assay: Binding affinity to AMPA receptor at 10 uM; type: protein-complex assay
[7] = biological target: Thyroid hormone receptor (Homo sapiens) (UniProt P10827+P10828); assay: Binding affinity to thyroid hormone receptor at 10 uM; type: protein-complex assay
[8] = biological target: T3, 3',5'-cyclic-AMP phosphodiesterase 4D (Homo sapiens, UniProt Q08499); assay: Inhibition of release of LTE4 in human whole blood; type: functional, tissue-based
[9] = biological target: Histamine H1 receptor (Homo sapiens) (UniProt P35367); assay: Binding affinity to Histamine H1 receptor at 10 uM
[10] = biological target: Beta-2 adrenergic receptor (Homo sapiens) (UniProt P07550); assay: Binding affinity to adrenergic beta2 receptor at 10 uM
[11] = biological target: 3',5'-cyclic-AMP phosphodiesterase 4C (Homo sapiens, UniProt Q08493); assay: Inhibition of PDE4C
Phosphodiesterase 3 = Phosphodiesterase 3 (Homo sapiens, UniProt Q14432+Q13370); assay: Inhibition of PDE3; type: protein assay
[12] = biological target: D(1A) dopamine receptor (Homo sapiens) (UniProt P21728); assay: Binding affinity to dopamine D1 receptor at 10 uM
[13] = biological target: Adrenergic receptor alpha-2 (Homo sapiens) (UniProt P08913+P18825+P18089); assay: Binding affinity to Adrenergic alpha-2 receptor at 10 uM; type: protein assay
[14] = biological target: High affinity choline transporter 1 (Homo sapiens) (UniProt Q9GZV3); assay: Binding affinity to choline transporter at 10 uM
[15] = biological target: Mu-type opioid receptor (Homo sapiens) (UniProt P35372); assay: Binding affinity to opiate mu receptor at 10 uM
[16] = biological target: Sodium-dependent noradrenaline transporter (Homo sapiens) (UniProt P23975); assay: Binding affinity to norepinephrine transporter at 10 uM
[17] = biological target: Platelet-activating factor receptor (Homo sapiens) (UniProt P25105); assay: Binding affinity to platelet activating factor at 10 uM
[18] = biological target: Serotonin 3 (5-HT3) receptor (Homo sapiens) (UniProt P46098+A5X5Y0+O95264+Q70Z44+Q8WXA8); assay: Binding affinity to serotonin 5HT3 receptor at 10 uM; type: protein-complex assay
[19] = biological target: High affinity cGMP-specific 3',5'-cyclic phosphodiesterase 9A (Homo sapiens, UniProt O76083); assay: Inhibition of PDE9
[20] = biological target: High affinity cAMP-specific and IBMX-insensitive 3',5'-cyclic phosphodiesterase 8B (Homo sapiens, UniProt O95263); assay: Inhibition of PDE8B
[21] = biological target: Vasopressin V1 receptor (Homo sapiens) (UniProt P37288+P47901); assay: Binding affinity to vasopressin V1 receptor at 10 uM; type: protein assay
[22] = biological target: cAMP and cAMP-inhibited cGMP 3',5'-cyclic phosphodiesterase 10A (Homo sapiens, UniProt Q9Y233); assay: Inhibition of PDE10
[23] = biological target: Muscarinic acetylcholine receptor M2 (Homo sapiens) (UniProt P08172); assay: Binding affinity to Muscarinic M2 receptor at 10 uM
[24] = biological target: Muscarinic acetylcholine receptor M3 (Homo sapiens) (UniProt P20309); assay: Binding affinity to Muscarinic M3 receptor at 10 uM
[25] = biological target: Adenosine receptor A3 (Homo sapiens) (UniProt P0DMS8); assay: Binding affinity to adenosine A3 receptor at 10 uM
[26] = biological target: Vasopressin V2 receptor (Homo sapiens) (UniProt P30518); assay: Binding affinity to vasopressin V2 receptor at 10 uM
[27] = biological target: Adenosine receptor A2a (Homo sapiens) (UniProt P29274); assay: Binding affinity to adenosine A2A receptor at 10 uM
[28] = biological target: Melanocortin receptor 4 (Homo sapiens) (UniProt P32245); assay: Binding affinity to MCR4 at 10 uM
[29] = biological target: Adrenergic receptor alpha-1 (Homo sapiens) (UniProt P35348+P25100+P35368); assay: Binding affinity to Adrenergic alpha-1 receptor at 10 uM; type: protein assay
[30] = biological target: T3, 3',5'-cyclic-AMP phosphodiesterase 4D; assay: cAMP elevation in U937 cells; type: functional, cell-based, U-937
[31] = biological target: 5-hydroxytryptamine receptor 1A (Homo sapiens) (UniProt P08908); assay: Binding affinity to serotonin 5HT1A receptor at 10 uM
[32] = biological target: Sodium-dependent dopamine transporter (Homo sapiens) (UniProt Q01959); assay: Binding affinity to dopamine transporter at 10 uM
[33] = biological target: Type-1 angiotensin II receptor (Homo sapiens) (UniProt P30556); assay: Binding affinity to angiotensin II receptor type 1 at 10 uM
[34] = biological target: Beta-1 adrenergic receptor (Homo sapiens) (UniProt P08588); assay: Binding affinity to adrenergic beta-1 receptor at 10 uM
[35] = biological target: Muscarinic acetylcholine receptor M1 (Homo sapiens) (UniProt P11229); assay: Binding affinity to Muscarinic M1 receptor at 10 uM
[36] = biological target: 5-hydroxytryptamine receptor 4 (Homo sapiens) (UniProt Q13639); assay: Binding affinity to serotonin 5HT4 receptor at 10 uM
[37] = biological target: B1 bradykinin receptor (Homo sapiens) (UniProt P46663); assay: Binding affinity to bradykinin B1 receptor at 10 uM
[38] = biological target: T3, 3',5'-cyclic-AMP phosphodiesterase 4D; details: Blood
Description: Inhibition of release of Eosinophil derived neurotoxin in human whole blood

[39] = biological target: Voltage-dependent N-type calcium channel subunit alpha-1B (Homo sapiens) (UniProt Q00975); assay: Binding affinity to calcium channel N type at 10 uM
[40] = biological target: Histamine H3 receptor (Homo sapiens) (UniProt Q9Y5N1); assay: Binding affinity to Histamine H3 receptor at 10 uM
[41] = biological target: T1, Voltage-gated L-type calcium channel; assay: Binding affinity to dilitiazem sensitive calcium channel L type at 10 uM; type: protein assay
[42] = biological target: D(2) dopamine receptor (Homo sapiens) (UniProt P14416); assay: Binding affinity to dopamine D2 receptor at 10 uM
[43] = Binding affinity to GABA transporter at 10 uM
[44] = Binding affinity to nicotinic neuronal receptor at 10 uM
[45] = biological target: T1, Voltage-gated L-type calcium channel; assay: Binding affinity to DHP sensitive calcium channel L type at 10 uM; type: protein assay
[46] = biological target: Acetylcholine receptor; alpha1/beta1/delta/gamma (Homo sapiens) (UniProt P02708+P07510+P11230+Q07001); assay: Binding affinity to nicotinic muscle receptor at 10 uM; type: protein-complex assay
[47] = biological target: cGMP-dependent 3',5'-cyclic phosphodiesterase (Homo sapiens, UniProt O00408); assay: Inhibition of PDE2
[48] = biological target: Muscarinic acetylcholine receptor M4 (Homo sapiens) (UniProt P08173); assay: Binding affinity to Muscarinic M4 receptor at 10 uM
[49] = biological target: Substance-P receptor (Homo sapiens) (UniProt P25103); assay: Binding affinity to neurokinin K1 receptor at 10 uM
[50] = biological target: D(3) dopamine receptor (Homo sapiens) (UniProt P35462); assay: Binding affinity to dopamine D3 receptor at 10 uM
[51] = biological target: 3',5'-cyclic-AMP phosphodiesterase 4A (Homo sapiens, UniProt P27815); assay: Inhibition of PDE4A
[52] = biological target: Kappa-type opioid receptor (Homo sapiens) (UniProt P41145); assay: Binding affinity to opiate kappa receptor at 10 uM
[53] = biological target: Histamine H2 receptor (Homo sapiens) (UniProt P25021); assay: Binding affinity to Histamine H2 receptor at 10 uM
[54] = biological target: High affinity cAMP-specific and IBMX-insensitive 3',5'-cyclic phosphodiesterase 8A (Homo sapiens, UniProt O60658); assay: Inhibition of PDE8A
[55] = biological target: Delta-type opioid receptor (Homo sapiens) (UniProt P41143); assay: Binding affinity to opiate delta receptor at 10 uM
[56] = biological target: Type-2 angiotensin II receptor (Homo sapiens) (UniProt P50052); assay: Binding affinity to angiotensin II receptor type 2 at 10 uM
[57] = biological target: 5-hydroxytryptamine receptor 7 (Homo sapiens) (UniProt P34969); assay: Binding affinity to serotonin 5HT7 receptor at 10 uM
[58] = biological target: D(4) dopamine receptor (Homo sapiens) (UniProt P21917); assay: Binding affinity to dopamine D4 receptor at 10 uM
[59] = biological target: Sodium-dependent serotonin transporter (Homo sapiens) (UniProt P31645); assay: Binding affinity to serotonin transporter at 10 uM
[60] = biological target: T3, 3',5'-cyclic-AMP phosphodiesterase 4D; assay: Inhibition of PDE4D
[61] = biological target: B2 bradykinin receptor (Homo sapiens) (UniProt P30411); assay: Binding affinity to bradykinin B2 receptor at 10 uM
[62] = biological target: Glutamate receptor ionotropic kainate (Homo sapiens) (UniProt P39086+Q16478+Q16099+Q13002+Q13003); assay: Binding affinity to kainate receptor at 10 uM; type: protein-complex assay
[63] = Binding affinity to GABA receptor at 10 uM
[64] = biological target: Glutamate [NMDA] receptor (Homo sapiens) (UniProt Q05586+Q12879+Q13224+O15399+O60391+Q14957+Q8TCU5); assay: Binding affinity to NMDA receptor at 10 uM; type: protein-complex assay
[65] = biological target: cGMP-specific 3',5'-cyclic phosphodiesterase (Homo sapiens, UniProt O76074); assay: Inhibition of PDE5
Cynomolgus monkey = assay: Inhibition of eosinophil infiltration in bronchoalveolar lavage fluid from cynomolgus monkeys exposed to Ascaris suum.; type: functional, Macaca fascicularis, Lung

T3 sequence (Q08499 whole entry): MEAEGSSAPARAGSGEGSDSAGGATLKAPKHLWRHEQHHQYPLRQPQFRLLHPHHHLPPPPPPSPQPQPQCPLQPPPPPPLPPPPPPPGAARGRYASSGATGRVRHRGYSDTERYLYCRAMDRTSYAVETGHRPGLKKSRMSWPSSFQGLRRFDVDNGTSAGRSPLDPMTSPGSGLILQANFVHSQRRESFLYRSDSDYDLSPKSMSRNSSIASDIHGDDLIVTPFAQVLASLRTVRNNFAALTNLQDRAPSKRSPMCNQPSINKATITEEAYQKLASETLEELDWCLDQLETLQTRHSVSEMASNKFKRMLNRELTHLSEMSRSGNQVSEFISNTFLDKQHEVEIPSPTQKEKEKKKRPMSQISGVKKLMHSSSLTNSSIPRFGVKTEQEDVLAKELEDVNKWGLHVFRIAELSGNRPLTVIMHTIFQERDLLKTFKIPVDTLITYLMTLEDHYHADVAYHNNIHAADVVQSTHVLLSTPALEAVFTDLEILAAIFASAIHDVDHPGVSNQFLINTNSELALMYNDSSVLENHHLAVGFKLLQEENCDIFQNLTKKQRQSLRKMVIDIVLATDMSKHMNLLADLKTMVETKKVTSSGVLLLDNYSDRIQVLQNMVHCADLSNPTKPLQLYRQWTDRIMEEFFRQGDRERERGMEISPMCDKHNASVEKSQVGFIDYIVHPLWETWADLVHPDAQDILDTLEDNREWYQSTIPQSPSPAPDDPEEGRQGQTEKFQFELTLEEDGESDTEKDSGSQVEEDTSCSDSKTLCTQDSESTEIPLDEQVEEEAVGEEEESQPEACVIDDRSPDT
T2 sequence (Q07343 whole entry): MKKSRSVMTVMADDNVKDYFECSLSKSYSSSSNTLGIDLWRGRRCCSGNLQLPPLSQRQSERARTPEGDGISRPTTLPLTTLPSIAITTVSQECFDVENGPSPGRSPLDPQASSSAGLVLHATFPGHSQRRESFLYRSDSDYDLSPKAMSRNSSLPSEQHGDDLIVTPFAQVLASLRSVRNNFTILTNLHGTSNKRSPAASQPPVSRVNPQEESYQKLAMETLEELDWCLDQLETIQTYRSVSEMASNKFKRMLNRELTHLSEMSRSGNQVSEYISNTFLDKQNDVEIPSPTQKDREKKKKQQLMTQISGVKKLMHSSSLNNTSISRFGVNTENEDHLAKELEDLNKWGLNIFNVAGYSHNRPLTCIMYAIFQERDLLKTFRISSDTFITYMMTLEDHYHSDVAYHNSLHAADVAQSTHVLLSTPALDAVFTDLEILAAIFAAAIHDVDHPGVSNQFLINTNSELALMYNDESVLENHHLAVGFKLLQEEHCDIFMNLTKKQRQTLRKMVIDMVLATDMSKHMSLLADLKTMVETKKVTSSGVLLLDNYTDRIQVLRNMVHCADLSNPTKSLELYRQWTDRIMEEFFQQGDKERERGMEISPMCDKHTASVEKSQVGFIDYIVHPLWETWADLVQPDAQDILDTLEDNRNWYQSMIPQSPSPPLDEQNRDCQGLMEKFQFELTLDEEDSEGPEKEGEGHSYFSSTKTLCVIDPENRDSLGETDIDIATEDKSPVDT
Substance-P receptor (Homo sapiens), sequence (P25103 whole entry): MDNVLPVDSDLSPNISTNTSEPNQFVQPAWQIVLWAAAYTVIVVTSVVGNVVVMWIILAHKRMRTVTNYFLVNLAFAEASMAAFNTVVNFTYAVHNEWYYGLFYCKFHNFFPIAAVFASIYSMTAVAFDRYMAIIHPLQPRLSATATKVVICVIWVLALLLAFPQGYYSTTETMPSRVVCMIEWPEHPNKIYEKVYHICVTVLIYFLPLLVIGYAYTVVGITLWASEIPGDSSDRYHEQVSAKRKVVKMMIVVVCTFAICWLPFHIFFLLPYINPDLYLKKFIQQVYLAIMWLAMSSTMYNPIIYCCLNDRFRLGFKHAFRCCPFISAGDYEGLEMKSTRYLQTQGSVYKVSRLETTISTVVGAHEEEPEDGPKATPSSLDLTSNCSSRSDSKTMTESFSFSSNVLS
Type-1 angiotensin II receptor (Homo sapiens), sequence (P30556 whole entry): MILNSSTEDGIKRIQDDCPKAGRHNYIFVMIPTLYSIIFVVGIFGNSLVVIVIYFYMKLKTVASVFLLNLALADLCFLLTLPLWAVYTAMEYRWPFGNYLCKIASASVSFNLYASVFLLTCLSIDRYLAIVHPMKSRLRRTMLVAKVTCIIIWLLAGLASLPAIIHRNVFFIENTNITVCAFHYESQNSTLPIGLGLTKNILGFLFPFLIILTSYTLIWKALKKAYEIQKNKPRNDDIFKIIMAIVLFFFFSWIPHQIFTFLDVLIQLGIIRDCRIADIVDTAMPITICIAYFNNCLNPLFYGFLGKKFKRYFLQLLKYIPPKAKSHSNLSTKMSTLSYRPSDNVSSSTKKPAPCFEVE
Adenosine receptor A2a (Homo sapiens), sequence (P29274 whole entry): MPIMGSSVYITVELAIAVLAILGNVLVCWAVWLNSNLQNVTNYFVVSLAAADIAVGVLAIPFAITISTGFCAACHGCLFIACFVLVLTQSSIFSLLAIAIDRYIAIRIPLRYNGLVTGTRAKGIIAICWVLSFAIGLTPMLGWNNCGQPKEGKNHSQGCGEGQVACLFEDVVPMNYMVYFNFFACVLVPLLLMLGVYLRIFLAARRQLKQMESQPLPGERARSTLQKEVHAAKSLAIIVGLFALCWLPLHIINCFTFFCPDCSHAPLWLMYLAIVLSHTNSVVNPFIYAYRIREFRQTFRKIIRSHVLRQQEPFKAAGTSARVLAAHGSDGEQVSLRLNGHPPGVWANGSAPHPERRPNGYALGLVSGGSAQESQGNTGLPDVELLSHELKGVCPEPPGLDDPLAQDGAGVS
Muscarinic acetylcholine receptor M3 (Homo sapiens), sequence (P20309 whole entry, looked up): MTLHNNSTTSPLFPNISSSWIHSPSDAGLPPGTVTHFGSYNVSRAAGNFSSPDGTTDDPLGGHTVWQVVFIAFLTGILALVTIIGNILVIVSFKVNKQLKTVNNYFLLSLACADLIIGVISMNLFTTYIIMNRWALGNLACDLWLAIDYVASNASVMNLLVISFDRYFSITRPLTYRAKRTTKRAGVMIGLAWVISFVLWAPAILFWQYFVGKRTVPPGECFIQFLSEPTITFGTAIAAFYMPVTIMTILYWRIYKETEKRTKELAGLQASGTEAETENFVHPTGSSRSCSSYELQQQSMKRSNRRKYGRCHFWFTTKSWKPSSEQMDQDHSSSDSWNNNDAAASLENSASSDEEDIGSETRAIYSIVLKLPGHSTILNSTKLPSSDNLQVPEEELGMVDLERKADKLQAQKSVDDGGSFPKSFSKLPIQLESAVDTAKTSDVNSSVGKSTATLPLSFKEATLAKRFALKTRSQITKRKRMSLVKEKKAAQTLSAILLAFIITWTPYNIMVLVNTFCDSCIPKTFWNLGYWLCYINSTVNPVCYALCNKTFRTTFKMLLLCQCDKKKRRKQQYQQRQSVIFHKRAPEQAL
B2 bradykinin receptor (Homo sapiens), sequence (P30411 whole entry): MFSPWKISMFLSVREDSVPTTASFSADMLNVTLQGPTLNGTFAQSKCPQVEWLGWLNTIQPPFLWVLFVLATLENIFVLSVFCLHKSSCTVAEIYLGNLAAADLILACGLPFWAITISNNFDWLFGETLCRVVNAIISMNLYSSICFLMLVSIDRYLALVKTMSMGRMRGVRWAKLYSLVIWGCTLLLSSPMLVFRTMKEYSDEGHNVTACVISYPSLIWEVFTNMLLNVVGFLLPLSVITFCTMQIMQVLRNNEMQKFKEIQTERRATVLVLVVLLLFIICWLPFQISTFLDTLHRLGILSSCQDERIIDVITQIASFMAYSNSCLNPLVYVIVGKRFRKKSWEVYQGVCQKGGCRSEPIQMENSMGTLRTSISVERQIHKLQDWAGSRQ
Muscarinic acetylcholine receptor M4 (Homo sapiens), sequence (P08173 whole entry): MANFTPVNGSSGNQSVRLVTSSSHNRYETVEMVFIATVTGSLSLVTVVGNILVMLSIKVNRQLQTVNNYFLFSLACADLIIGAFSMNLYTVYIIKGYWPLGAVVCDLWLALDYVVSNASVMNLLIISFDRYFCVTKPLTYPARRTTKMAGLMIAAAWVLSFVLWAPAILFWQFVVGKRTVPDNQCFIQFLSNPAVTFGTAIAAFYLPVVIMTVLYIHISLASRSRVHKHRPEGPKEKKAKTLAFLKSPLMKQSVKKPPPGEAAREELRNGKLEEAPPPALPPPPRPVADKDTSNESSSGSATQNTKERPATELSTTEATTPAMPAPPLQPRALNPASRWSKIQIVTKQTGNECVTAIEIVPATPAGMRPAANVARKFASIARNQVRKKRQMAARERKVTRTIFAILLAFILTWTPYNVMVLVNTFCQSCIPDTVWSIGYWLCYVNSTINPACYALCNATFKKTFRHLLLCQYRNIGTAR
5-hydroxytryptamine receptor 4 (Homo sapiens), sequence (Q13639 whole entry): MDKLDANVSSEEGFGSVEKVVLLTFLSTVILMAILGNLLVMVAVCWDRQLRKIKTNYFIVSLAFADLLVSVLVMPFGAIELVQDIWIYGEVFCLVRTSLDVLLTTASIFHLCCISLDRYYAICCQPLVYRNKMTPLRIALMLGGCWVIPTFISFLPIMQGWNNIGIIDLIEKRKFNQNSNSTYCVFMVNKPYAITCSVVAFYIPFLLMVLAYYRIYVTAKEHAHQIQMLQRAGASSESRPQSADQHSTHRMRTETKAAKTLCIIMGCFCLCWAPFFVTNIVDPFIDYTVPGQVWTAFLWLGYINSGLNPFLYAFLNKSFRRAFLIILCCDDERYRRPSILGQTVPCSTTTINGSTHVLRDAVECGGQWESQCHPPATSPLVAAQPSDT
Adenosine receptor A3 (Homo sapiens), sequence (P0DMS8 whole entry): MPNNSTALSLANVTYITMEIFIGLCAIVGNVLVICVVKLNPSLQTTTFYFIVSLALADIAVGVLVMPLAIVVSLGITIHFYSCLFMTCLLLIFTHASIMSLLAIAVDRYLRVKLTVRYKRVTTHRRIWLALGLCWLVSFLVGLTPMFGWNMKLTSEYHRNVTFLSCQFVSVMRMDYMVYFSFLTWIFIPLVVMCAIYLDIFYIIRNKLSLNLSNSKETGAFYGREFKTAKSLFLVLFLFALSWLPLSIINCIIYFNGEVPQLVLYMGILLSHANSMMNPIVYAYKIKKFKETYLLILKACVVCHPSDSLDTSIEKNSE

C[C@@H](NC(=O)c1cccnc1Oc1ccc(F)cc1)c1cccs1
Activity [1]: 0% | IC50 [2]: 925 nM | Activity [3]: 0% | Activity [4]: 12% | IC50 [5]: 185 nM | Activity [6]: 10% | Activity [7]: 8% | IC50 [8]: 2 nM | Activity [9]: 4% | Activity [10]: 6% | IC50 [11]: 1380 nM | IC50 (Phosphodiesterase 3): > 16000 nM | Activity [12]: 27% | Activity [13]: 0% | Activity [14]: 60% | Activity [15]: 15% | Activity [16]: 14% | Activity [17]: 23% | Activity [18]: 4% | IC50 [19]: > 16000 nM | IC50 [20]: > 16000 nM | Activity [21]: 26% | IC50 [22]: > 16000 nM | Activity [23]: 1% | Activity [24]: 5% | Activity [25]: 31% | Activity [26]: 9% | Activity [27]: 23% | Activity [28]: 22% | Activity [29]: 0% | EC50 [30]: 22 nM | Activity [31]: 5% | Activity [32]: 23% | Activity [33]: 3% | Activity [34]: 12% | Activity [35]: 0% | Activity [36]: 14% | Activity [37]: 0% | IC30 [38]: 16 nM | Activity [39]: 0% | Activity [40]: 0% | Activity [41]: 6% | Activity [42]: 0% | Activity [43]: 22% | Activity [44]: 3% | Activity [45]: 25% | Activity [46]: 22% | IC50 [47]: > 16000 nM | Activity [48]: 12% | Activity [49]: 27% | Activity [50]: 0% | IC50 [51]: 107 nM | Activity [52]: 21% | Activity [53]: 0% | IC50 [54]: > 16000 nM | Activity [55]: 18% | Activity [56]: 0% | Activity [57]: 0% | Activity [58]: 9% | Activity [59]: 0% | IC50 [60]: 4 nM | Activity [61]: 0% | Activity [62]: 0% | Activity [63]: 0% | Activity [64]: 0% | IC50 [65]: > 16000 nM | Inhibition (Cynomolgus monkey): 65%
